Assay results as given in patent US20050214394A1, “Hippophae rhamnoides compositions for cancer therapy” (priority 2003, published 2005).

Legend:
COX-1 = target: T1, COX-1 (Ovis aries, UniProt P05979); experiment: COX-1 ELISA assay kit (PGHS-1 converting arachidonic acid to prostaglandins); conditions: commercial anti-inflammatory drug (positive control); concentration not given
T1 sequence (P05979 25-600): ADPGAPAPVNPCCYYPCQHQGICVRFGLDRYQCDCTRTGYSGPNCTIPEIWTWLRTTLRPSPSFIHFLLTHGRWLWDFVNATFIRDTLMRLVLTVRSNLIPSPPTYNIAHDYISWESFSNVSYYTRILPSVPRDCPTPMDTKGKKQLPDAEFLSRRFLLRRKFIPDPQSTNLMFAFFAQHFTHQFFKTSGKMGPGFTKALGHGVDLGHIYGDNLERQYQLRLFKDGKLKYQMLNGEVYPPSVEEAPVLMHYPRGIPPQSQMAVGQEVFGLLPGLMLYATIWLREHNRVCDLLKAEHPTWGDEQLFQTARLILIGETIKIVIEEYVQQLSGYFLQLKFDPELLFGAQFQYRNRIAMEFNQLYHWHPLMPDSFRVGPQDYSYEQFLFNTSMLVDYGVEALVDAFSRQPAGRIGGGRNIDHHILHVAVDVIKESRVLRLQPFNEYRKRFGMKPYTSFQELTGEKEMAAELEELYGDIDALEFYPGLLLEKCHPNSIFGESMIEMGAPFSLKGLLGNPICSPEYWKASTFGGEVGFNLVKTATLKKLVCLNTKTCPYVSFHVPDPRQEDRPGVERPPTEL

COX-2 = target: T2, COX-2 (Homo sapiens, UniProt P35354); experiment: COX-2 ELISA assay kit (PGHS-2 converting arachidonic acid to prostaglandins)
T2 sequence (P35354 18-604): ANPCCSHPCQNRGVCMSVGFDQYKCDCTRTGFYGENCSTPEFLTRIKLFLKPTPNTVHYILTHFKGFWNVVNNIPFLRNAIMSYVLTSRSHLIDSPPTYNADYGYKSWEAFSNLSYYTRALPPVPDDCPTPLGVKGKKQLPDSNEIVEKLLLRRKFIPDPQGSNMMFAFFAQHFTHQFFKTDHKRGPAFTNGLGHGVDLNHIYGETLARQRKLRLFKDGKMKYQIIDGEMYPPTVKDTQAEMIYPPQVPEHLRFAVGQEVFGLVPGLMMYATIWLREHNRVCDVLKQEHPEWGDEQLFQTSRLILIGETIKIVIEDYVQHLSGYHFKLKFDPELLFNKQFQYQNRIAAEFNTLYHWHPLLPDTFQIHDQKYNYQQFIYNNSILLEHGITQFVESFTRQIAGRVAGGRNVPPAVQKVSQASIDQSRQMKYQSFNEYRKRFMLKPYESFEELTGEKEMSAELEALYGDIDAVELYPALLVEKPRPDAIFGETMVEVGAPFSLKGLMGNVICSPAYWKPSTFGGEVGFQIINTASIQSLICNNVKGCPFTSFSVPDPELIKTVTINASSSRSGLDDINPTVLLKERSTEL
Method: The anti-inflammatory assays for COX-2 inhibitory activity were conducted using prostaglandin endoperoxide H synthase-1 and -2 isozymes (PGHS-1, and -2) based on their ability to convert arachidonic acid to prostaglandins (PGs).
Inhibition was measured by COX-1 and COX-2 ELISA assay kits (Cayman Chemical Co., Ann Arbor, Mich.).

In the case of `CC(=O)Oc1ccccc1C(=O)O` [aspirin], the “inhibition of COX-1” value (COX-1) is reported as 58% and the “inhibition of COX-2” value (COX-2) is reported as 42%.
